Assay results taken from ChEMBL document CHEMBL3507680, “University of Dundee, Gates Library screen for HepG2 cell viability”.

Test: Human HepG2 cell viability assay in 384 well format
Format: toxicity, cell-based
Design: dose 125 nL, time 70.5 hour; concentration not given beside the values
Conditions: HepG2 cells, read-out: Inhibition

SMILES	cytotoxicity at 70.5 h [%]
COCC(=O)N1CCc2nc(C)nc(NC(C)C)c2CC1	-6.06
COc1ccccc1CN1CCC2(CC1)CC(Oc1ccccn1)CO2 (centres undefined)	47.3
O=C(CCn1c(C(F)(F)F)cc2cccnc21)N1CCCC1	-0.515
Cc1cccc(C(=O)NCc2ccc(S(N)(=O)=O)cc2)n1	-12.2
O=C(c1nn[nH]c1Nc1cccc(Cl)c1)N1CCSCC1	26.2
CCn1cc(CN2CCC(C3CCN(C)CC3)CC2)cc1C#N	-1.33
COc1cccc(F)c1C(=O)N1C[C@@H](CN(C)CCO)[C@@H](CO)C1	-8.49
COCC1CC2(CCN(CC3CC3)CC2)CN1Cc1ccccn1 (centres undefined)	-2.19
O=S(=O)(NC1CC1)c1cccc(Br)c1	3.01
CN(Cc1ccncc1)C(=O)NCc1nnc2n1CCCCC2	22.9
CN(C)CC(=O)N1CCC2(CC1)CN(Cc1cccnc1)C(=O)CO2	17.2
CCO[C@H]1C[C@@H](O)C12CCN(C(=O)CN1CCCCCC1=O)CC2	6.65
O=C(CCN1C[C@@H]2CC[C@H]1C2)N1CCN(c2cccc(Cl)c2)C(=O)C1	-0.743
O=C(Nc1nncs1)N1CCCN(C2CCCC2)CC1	18.5
Cc1ccccc1CN1CCC(NCC2CNc3ccnn3C2)CC1 (centres undefined)	0.228
CN(C)C(=O)[C@H]1C[C@@H]2CCN(Cc3ccncc3)C[C@H]2O1	-7.62
CCn1c(CN(C)Cc2csc(C)n2)nc2cc(F)ccc21	-20.1
Cc1nc(O)cc(CCNC(=O)C2CC(=O)N(CC(C)C)C2)n1 (centres undefined)	-8.39
CCN(CC)CC1CN(CCc2ccccc2)Cc2nccn2C1 (centres undefined)	-4.11
CC(C)(C)OC(=O)N1CCC(C(=O)NC2CCS(=O)(=O)C2)CC1 (centres undefined)	-6.28
Cc1cc(C)nc(CN(C)C(=O)c2cccc(CCC(C)(C)O)c2)c1	-4.1
O=C1CCCN1CC1CN(C(=O)N2CCOCC2)Cc2nccn2C1 (centres undefined)	-2.04
CCC(C)(C)NC(=O)C[S+]([O-])Cc1csc(C2CCCC2)n1 (centres undefined)	11

SMILES	cytotoxicity at 70.5 h [%]
CCOc1ccc(CNC(=O)N(C)Cc2ncnn2C)cc1C	1.14
CC1(c2ccc(Br)cc2)CC(=O)N(CCC(N)=O)C1=O (centres undefined)	-6.18
COC(C)c1cccc(NC(=O)N(CCC#N)Cc2ccccn2)c1 (centres undefined)	-6.49
CC(=O)N1CCO[C@@H]2CN(S(=O)(=O)c3ccc(C)cc3)CC[C@@H]2C1	11.2
CC(C)(C)C(=O)N1CCC(c2nc(O)cc(-c3ccccn3)n2)CC1	16
c1cnc2c(c1)nc1n2[C@@H](CNC2CCOCC2)COC1	-4.98
CN(C)CCN1CCC2(CCN(C(=O)c3ccc(F)cc3)CC2)C1=O	-8.17
COCCN1CCCC(O)(CN2CCN(c3ncccc3C)CC2)C1=O (centres undefined)	-7.68
CCOC(=O)[C@H]1[C@@H](O)C(=O)N(C)C12CCN(C(=O)C(CC)CC)CC2	-3.26
O=C(NCc1nncn1C1CCCCC1)C1COc2ccccc2O1 (centres undefined)	-7.82
CCC(C)(CC(=O)OC)NCc1nc(C)no1 (centres undefined)	28.3
COc1nn(C)cc1C(=O)N1CCC(c2nnc(-c3ccsc3)o2)CC1	-6.31
CS(=O)(=O)N1CCC[C@]2(C[C@@H](Oc3ncccc3F)CO2)C1	-5.05
Cn1cc(Cl)c(CN2CCCC(Cn3cc(CO)nn3)C2)n1 (centres undefined)	-6.23
O=C1NCC2(CCCN(C(=O)Nc3ccc4occc4c3)CC2)O1 (centres undefined)	-1.24
Cc1[nH]c(=O)sc1S(=O)(=O)N1CCCC1C(=O)NCc1ccsc1 (centres undefined)	-4.24
Cc1nn(C)c2cn(CC(=O)NC3CCSCC3)nc12	-0.476
Cc1noc(C(C)C)c1C(=O)NCCCOC(C)C	-4.85
CC(=O)Nc1ccc(S(=O)(=O)NC(=O)CCC2CCCO2)cc1 (centres undefined)	26.4
O=C(c1cccc(CNCC2CNc3ccnn3C2)c1)N1CCCC1 (centres undefined)	16.7
Cn1cc(C(=O)NCc2cn3c(n2)CN(CC2CCOC2)CC3)cn1 (centres undefined)	-110
Cn1cc(-c2csc(CN3CCOCC3)n2)cn1	-1.08
c1ccc(N2CCC3(COCCN(c4ncccn4)C3)C2)nc1 (centres undefined)	-10

SMILES	cytotoxicity at 70.5 h [%]
COc1c(C2CCCN2CC(=O)Nc2cc(C)on2)c(C)nn1C (centres undefined)	12.2
Cn1cc(C(=O)N2CCCC(n3cncn3)C2)ccc1=O (centres undefined)	-9.74
CN(Cc1cnn(C)c1)Cc1nc(Cc2cccc(Cl)c2)no1	-7.96
O=C(NCC1CCOC1)N1CCN(c2ncccn2)CC1 (centres undefined)	0.214
Cc1csc(CCNCc2cnc3c(c2)c(C)nn3C)n1	5.91
Fc1ccc(OCCCNC2=NCCN2)cc1	-14.3
Cc1cc(-c2c[nH]nc2C2CCCCN2C(=O)c2ccccc2)on1 (centres undefined)	-9.53
O=S(=O)(C1CC1)N1CCC2(CCCN(c3ncccn3)C2)C1 (centres undefined)	18
c1cncc(COCC2CNCc3nccn3C2)c1 (centres undefined)	3.07
CN1CCC(N2CCOC[C@H]2c2nc(-c3ccncc3)c[nH]2)CC1	3.14
CC(=O)N1CC(=O)N(c2ccccc2)CC12CCN(Cc1nccs1)C2 (centres undefined)	-3.72
O=C(NCCNC(=O)c1scnc1Cl)c1cccs1	-14.2
CCc1nc(CN2CCCC(NCc3nc4ccccc4o3)C2)no1 (centres undefined)	-1.56
CO[C@H]1CN(C(=O)c2ccnnc2)[C@@H]2COC[C@H]12	36.6
CN(CCn1cccn1)C1CCCN(Cc2noc(C3CC3)n2)C1 (centres undefined)	12.7
OCC1N(Cc2ccco2)[C@H]2CC[C@]1(O)CC2 (some centres undefined)	-9.15
O=S(=O)(c1c(N2CCCCC2)ccc2nonc12)N1CCCCC1	-8.4
COCC(=O)N[C@H](C(=O)NC(C)c1cc(C)ccc1C)C(C)C (some centres undefined)	-0.855
Cc1cc(=O)n(C)cc1NC(=O)CC1CCC1	-2.84
COc1cccc(-n2nnc(C(=O)N3CCOC(C)C3)c2C)c1 (centres undefined)	-1.7
CC(=O)N1CC(=O)N(c2cnn(C)c2)CC12CCN(Cc1ccco1)C2 (centres undefined)	-16.8
CC(C)(C(=O)NCCCc1nc2ccccc2[nH]1)n1cc(Cl)cn1	-5.61
COCCC(=O)N1Cc2ccccc2OC2(CCOCC2)C1	-0.482

SMILES	cytotoxicity at 70.5 h [%]
COc1ccc(F)cc1C(=O)N(C)[C@@H]1CC[C@@H](O)[C@@H]1O	-9.84
Brc1ccc(C2(CNCc3cc[nH]c3)CCOCC2)cc1	-0.56
O=C(NCc1ccccc1CN1CCC(O)CC1)Nc1ccncc1	9.61
O=C(c1ccnnc1)N1CC[C@H]2[C@H]1CCN2S(=O)(=O)C1CC1	-0.791
CCO[C@@H]1CC[C@H]2[C@H]1OCCN2Cc1ccc(F)cc1	-16.2
COC(=O)CNC(=O)C1CCN(S(C)(=O)=O)CC1	-9.71
CNC(=O)NC(=O)Cn1cc(-c2ccccc2)cn1	-2.21
Cn1ccnc1CNC1CCCN(Cc2noc(C3CC3)n2)C1 (centres undefined)	-3.59
CCN(C)C1COC2(CCN(C(=O)c3cccc(Cl)c3)CC2)C1 (centres undefined)	-6.18
COC1(CNC(=O)NCCOc2ccccc2)CCSC1 (centres undefined)	1.02
CCN1CCC2(CC1)CN(CCO)c1ccccc12	21.2
O=C(CCN1CCCCO1)NC1CCCN(CC2CCCCC2)C1 (centres undefined)	-8.52
Cn1ccn2ncc(C(=O)NCc3cccnc3N3CCCC(O)C3)c12 (centres undefined)	-18.3
Cc1nc(C(NC(=O)CN(C)C(C)C)c2ccccc2F)no1 (centres undefined)	-4.07
CCOc1ccccc1CCNC(=O)NCC(O)c1ccsc1 (centres undefined)	-0.583
Cc1ccccc1CC(C)(C)NC(=O)COc1cccc(C(N)=O)c1	-0.108
COCCN1CCCn2c(nc(Cn3cncn3)cc2=O)C1	19.3
CS(=O)(=O)N1CC[C@@H]2O[C@@H](COCC(=O)N3CCCC3)CC[C@@H]21	22.1
Cc1nc(C2CCCN(C(C)C)C2)sc1Br (centres undefined)	-4.14
CN1CCc2c(NC(=O)NCc3ccccc3Cl)cccc21	-1.74
Cc1nn(C)c(C)c1C(C)NC(=O)c1cc(CN2CCC(O)CC2)on1 (centres undefined)	-5.78
CCn1cc(CN2CCCC(c3[nH]ncc3-c3ccc(C)cc3)C2)cn1 (centres undefined)	-16.8
O=C1CC2(CCN(Cc3ccc(-c4ccccc4)s3)C2)C(=O)N1 (centres undefined)	-3.29

SMILES	cytotoxicity at 70.5 h [%]
COc1cc(N2CC3(CCN(S(C)(=O)=O)C3)C2)ncn1	-12
NC(=O)N1CCCC(C(=O)Nc2cccc(Cl)c2)C1 (centres undefined)	-8.06
CCCn1nccc1-c1nccnc1CC1CCN(C(C)=O)CC1	-2.55
Cc1cc2ncc(C(C)NCc3cccnc3)c(C)n2n1 (centres undefined)	-3.89
O=C(Nc1ccccc1)N1CCn2c(nnc2C2CCNCC2)C1	-9.29
CSCCC(C)NC(=O)N1CCSC(C)(C)C1 (centres undefined)	22.4
COc1cccc2c1OCC(C(=O)N1Cc3ccccc3C1)C2 (centres undefined)	-1.1
Cc1ccccc1CN(C)C(=O)c1ccoc1	3.46
CCC[C@@H]1CN(C(=O)c2cc3ccccc3s2)C[C@H]1NS(C)(=O)=O	-2.51
Cc1cc(Cl)ccc1NCc1cnn(C2CCS(=O)(=O)C2)c1 (centres undefined)	5.78
COc1ccc(S(=O)(=O)N2CCC(S(C)(=O)=O)CC2)cc1C	5.77
CC(NCc1cnn(C)c1)c1ccc(OCc2nccn2C)cc1 (centres undefined)	-2.06
CN(C)C(=O)c1csc(-c2ccoc2)n1	27.9
O=C(c1cc(-c2ccco2)cs1)N1CCCC1	-16.3
CCOC(C)c1nc(CN2CCC(C3OCCO3)CC2)cs1 (centres undefined)	9.96
Cc1nc(C)n(CC2CN(Cc3noc(C4CC4)n3)CCO2)n1 (centres undefined)	-6.68
Cc1nc(C)n(CC2CN(c3ccc(C#N)cn3)CCO2)n1 (centres undefined)	-4.17
CCc1nc2ccccc2c(=O)n1CC1(O)CCN(C(=O)COC)CC1	-2.82
CN(C)C(=O)NCC1CC2(CO1)CN(c1nncs1)C2 (centres undefined)	1.71
O=C(CC(F)(F)F)N1CCCC(c2nccn2Cc2ccncc2)C1 (centres undefined)	-6.22
CC(=O)N1CCCC2(CCN(c3ccccc3)C2=O)C1 (centres undefined)	12.8
O=C(N1CCCO1)[C@@]12CCO[C@@H]1CCN(Cc1cccs1)C2	34.4
